Source: PubChem BioAssay AID624344 (Sanford-Burnham Center for Chemical Genomics, 2012)
Activity calls are given as the source filed them. No rule for the calls is given here.

Assays:
Cytotoxicity = assay: NFkB reporter suppression in cystic fibrosis bronchial cells – cell-based, uHTS hits, panel, cytotoxicity readout, dose response (AID 624344); conditions: CF bronchial epithelial cells, mean of runs
[1] = as above; conditions: CF bronchial epithelial cells, PAF-induced NFkB reporter inhibition; with PAF, mean of runs

O=C(c1nnsc1S(=O)c1ccc(Cl)cc1)N1CCOCC1 (configuration not stated)
IC50 (Cytotoxicity): 10.7 µM | IC50 [1]: 1.87 µM

COc1ccc(-c2nc(N3CCOCC3)nc3n[nH]c(N)c23)cc1
IC50 (Cytotoxicity): 9.47 µM | IC50 [1]: 6.92 µM

COc1ccc(-c2cc(=O)oc3cc(O)ccc23)cc1
IC50 (Cytotoxicity): 46.9 µM | IC50 [1]: 1.89 µM

COc1cccc2c(SCC(=O)N/N=C/c3ccccc3)cc(C)nc12
IC50 (Cytotoxicity): 38.6 µM | IC50 [1]: 6.95 µM

CCOc1ccccc1NC(=S)Nc1ccc2cn[nH]c2c1
IC50 (Cytotoxicity): 58.5 µM (inactive) | IC50 [1]: 5.7 µM

O=c1[nH]nc(Sc2ncnc3sccc23)n1CCc1ccccc1
IC50 (Cytotoxicity): 19 µM | IC50 [1]: 3.07 µM

COc1ccc(-n2nc(C(=O)NCC(=O)Nc3cc(OC)c(OC)c(OC)c3)c3ccccc3c2=O)cc1OC
IC50 (Cytotoxicity): 14.6 µM | IC50 [1]: 2.25 µM

CCC(C)Oc1cc(-c2ccnc(Nc3cccc(Cl)c3)n2)ccn1 (configuration not stated)
IC50 (Cytotoxicity): 5.62 µM | IC50 [1]: 3.28 µM

O=C(Nc1cccc(Cl)c1)Nc1cc(S(=O)(=O)N2CCCCC2)ccc1Cl
IC50 (Cytotoxicity): 9.07 µM | IC50 [1]: 6.4 µM

Cc1cccc(NC(=O)c2nc[nH]c2C(=O)NCCCNC(=O)c2[nH]cnc2C(=O)Nc2cccc(C)c2)c1
IC50 (Cytotoxicity): 11.4 µM | IC50 [1]: 4.07 µM

c1nc(N2CCOCC2)c2c3c(sc2n1)CCCC3
IC50 (Cytotoxicity): 62.3 µM (inactive) | IC50 [1]: 6.88 µM

CCOc1ccc(C(C(=O)NC2CCCC2)N(C(=O)c2snc(C(N)=O)c2N)c2cccc(O)c2)cc1 (configuration not stated)
IC50 (Cytotoxicity): 7.27 µM | IC50 [1]: 4.37 µM

NC(=Nc1ccccc1)NN=Cc1c[nH]c2ccccc12
IC50 (Cytotoxicity): 23.3 µM | IC50 [1]: inactive

COc1ccc(CN(C)C(=O)c2cc(-c3ccc(C)cc3C)nc3ccccc23)c(OC)c1OC
IC50 (Cytotoxicity): 7.07 µM | IC50 [1]: 6.52 µM

Cc1ccc(-c2onc3ccc(C(=O)/C=C/N(C)C)cc23)cc1
IC50 (Cytotoxicity): 22.9 µM | IC50 [1]: 9.39 µM

COc1cccc(-c2ccc3ncnc(NCc4ccc5c(c4)OCO5)c3c2)c1
IC50 (Cytotoxicity): 18.1 µM | IC50 [1]: 1.61 µM

COc1cc(CN(C)c2ccc(S(=O)(=O)N3CCCC3)cn2)ccc1OC(F)F
IC50 (Cytotoxicity): > 79 µM (inactive) | IC50 [1]: 0.453 µM

CCc1cc(-c2[nH]ncc2-c2ccc(OC)cc2)c(O)cc1O
IC50 (Cytotoxicity): 31 µM | IC50 [1]: 3.56 µM

Nc1ncc(-c2ccccc2)c(-c2ccc(O)cc2O)n1
IC50 (Cytotoxicity): > 79 µM (inactive) | IC50 [1]: 4.01 µM

O=C(Nc1ccc(N2CCN(C(=O)c3ccccc3F)CC2)cc1)c1cncc(Br)c1
IC50 (Cytotoxicity): 54.7 µM (inactive) | IC50 [1]: 2.67 µM

O=C(NCCCSc1ccccc1)c1cc(Br)ccc1O
IC50 (Cytotoxicity): 3.05 µM | IC50 [1]: 4.8 µM

COc1ccc2[nH]c3c(c2c1)CCN1C(=O)C(CC(=O)NCCC2=CCCCC2)C[C@H](C(=O)N2CCCCC2)[C@@]31CCc1ccccc1 (some centres not stated)
IC50 (Cytotoxicity): 44.1 µM | IC50 [1]: 8.09 µM

CCC(=NCCc1c(C)[nH]c2ccc(C)cc12)C1=C(O)CC(c2ccccc2)CC1=O (configuration not stated)
IC50 (Cytotoxicity): > 79 µM (inactive) | IC50 [1]: 7.89 µM

COc1ccc2nc(Nc3nc(CSc4nc5ccccc5[nH]4)cc(=O)[nH]3)nc(C)c2c1
IC50 (Cytotoxicity): 44 µM | IC50 [1]: 5.97 µM

COc1ccc(-c2cn[nH]c2-c2ccc(O)cc2O)cc1
IC50 (Cytotoxicity): > 79 µM (inactive) | IC50 [1]: 1.76 µM

COc1cccc(-c2ccc3ncnc(NCc4cccnc4)c3c2)c1
IC50 (Cytotoxicity): 11.3 µM | IC50 [1]: 1.23 µM

CC(=O)OC1CCC2(C)C(CCC3C4CC=C(C(C)=O)C4(C)OC(=O)CC32)C1 (configuration not stated)
IC50 (Cytotoxicity): 5.07 µM | IC50 [1]: 0.972 µM

Cc1ccc(C(C(=O)NCc2ccccc2)N(Cc2cccs2)C(=O)c2ccc3c(c2)OCCO3)cc1 (configuration not stated)
IC50 (Cytotoxicity): 3.48 µM | IC50 [1]: 3.04 µM

C[C@H]1CCCC(=O)CCC/C=C/c2cc(O)cc(O)c2C(=O)O1
IC50 (Cytotoxicity): 25.9 µM | IC50 [1]: 14 µM

O=C(CC12CC3CC(CC(C3)C1)C2)Nc1nncs1
IC50 (Cytotoxicity): 54.5 µM (inactive) | IC50 [1]: inactive

O=C(Oc1cc2oc(=O)cc(-c3ccccc3)c2cc1Cl)C1CCCCC1
IC50 (Cytotoxicity): 30.6 µM | IC50 [1]: 2.22 µM

COc1ccc(-c2cc(=O)oc3c(C)c(O)ccc23)cc1
IC50 (Cytotoxicity): 67.5 µM (inactive) | IC50 [1]: 0.867 µM

O=[N+]([O-])c1cc([N+](=O)[O-])c2oc(-c3ccccc3)c(Br)c2c1O
IC50 (Cytotoxicity): 4.56 µM | IC50 [1]: 2.3 µM

CC(=C/c1ccccc1)/C=N/n1c(-c2ccncc2)n[nH]c1=S
IC50 (Cytotoxicity): 65.2 µM (inactive) | IC50 [1]: 0.43 µM

O=C(NCCN1CCN(c2ccccc2)CC1)c1cccc(Br)c1
IC50 (Cytotoxicity): 57.4 µM (inactive) | IC50 [1]: 18.9 µM

COc1cc(O)cc2cc3c(c(O)c12)C(=O)CC(C)(O)O3 (configuration not stated)
IC50 (Cytotoxicity): 45.5 µM | IC50 [1]: 4.17 µM

O=C(NCc1cccnc1)/C(=C\c1ccc(-c2cccc(Cl)c2)o1)S(=O)(=O)c1ccccc1
IC50 (Cytotoxicity): 5.33 µM | IC50 [1]: 1.71 µM

C=C1C(=O)O[C@H]2C[C@H]1[C@@H](OC(C)=O)C/C(C)=C/CC/C(C)=C\CC[C@]2(C)O
IC50 (Cytotoxicity): 2.39 µM | IC50 [1]: 2 µM

CCN1CCN(Cc2ccc(NC(=O)c3ccc(C)c(NC(=O)N4CCNC4=O)c3)cc2C(F)(F)F)CC1
IC50 (Cytotoxicity): 29.2 µM | IC50 [1]: 1.62 µM

Cc1nc(N)c(C#N)c(-c2cccnc2)c1-c1ccccc1
IC50 (Cytotoxicity): 62.9 µM (inactive) | IC50 [1]: 4.45 µM

Clc1cccc(Nc2ncnc3ccc(Br)cc23)c1
IC50 (Cytotoxicity): 15.1 µM | IC50 [1]: 3.53 µM
